# Test results as given in ChEMBL document CHEMBL1201862, “PubChem BioAssay data set” (2004).
#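 Five concentrations, 48 hours, 96-well plates. GI50 is the concentration that inhibits growth by half.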 Active and inactive are the calls of the source. No stated cut-off is given here; in the data, active = GI50 up to about 1.1 µM and inactive = higher.
# What was measured:
# Test in all cases: inhibition of tumour cell growth, NCI panel, 48 h
# [1] = test system: A498
# [2] = test system: CAKI-1
# [3] = test system: CCRF-CEM
# [4] = test system: COLO 205
# [5] = test system: HCC 2998
# [6] = test system: HCT-15
# [7] = test system: MCF7
# [8] = test system: MOLT-4
# [9] = test system: Malme-3M
# [10] = test system: NCI-H23
# [11] = test system: NCI-H460
# [12] = test system: OVCAR-3
# [13] = test system: RXF 393
# [14] = test system: SF-295
# [15] = test system: SF-539
# [16] = test system: SK-MEL-28
# [17] = test system: SK-MEL-5
# [18] = test system: U-251
# [19] = test system: UACC-257
# [20] = test system: UO-31
Compound,GI50 [1],GI50 [2],GI50 [3],GI50 [4],GI50 [5],GI50 [6] [µM],GI50 [7],GI50 [8],GI50 [9],GI50 [10],GI50 [11],GI50 [12],GI50 [13],GI50 [14],GI50 [15],GI50 [16],GI50 [17],GI50 [18],GI50 [19],GI50 [20]
CN(C)C(=O)NCCN1CCCCCc2ccccc21,> 100 µM (inactive),> 100 µM (inactive),71.8 µM (inactive),> 100 µM (inactive),> 100 µM (inactive),> 100,> 100 µM (inactive),93.1 µM (inactive),> 100 µM (inactive),76.4 µM (inactive),> 100 µM (inactive),37 µM (inactive),> 100 µM (inactive),> 100 µM (inactive),> 100 µM (inactive),> 100 µM (inactive),24.3 µM (inactive),> 100 µM (inactive),76 µM (inactive),> 100 µM (inactive)
Cc1cc(C(=O)NCCN(C)C)c2nc3ccccc3cc2c1,1.15 µM (inactive),0.33 µM (active),1.36 µM (inactive),1.1 µM (active),3.67 µM (inactive),1.65,1.55 µM (inactive),0.381 µM (active),1.6 µM (inactive),2.3 µM (inactive),0.372 µM (active),2.38 µM (inactive),1.63 µM (inactive),1.27 µM (inactive),3.76 µM (inactive),3.15 µM (inactive),1.64 µM (inactive),2.69 µM (inactive),2.07 µM (inactive),1.42 µM (inactive)
COc1cc2c(ccc3c4cc(OC)c(OC)cc4c[n+](C)c23)cc1O [FAGARONINE],3.94 µM (inactive),61.7 µM (inactive),2.02 µM (inactive),15 µM (inactive),34.4 µM (inactive),> 73.3,4.15 µM (inactive),4.28 µM (inactive),15.6 µM (inactive),7.76 µM (inactive),14.7 µM (inactive),4.72 µM (inactive),30 µM (inactive),7.93 µM (inactive),2.88 µM (inactive),52.7 µM (inactive),4.09 µM (inactive),0.264 µM (active),> 67 µM (inactive),> 72.8 µM (inactive)
C=C1C(=O)OC2CC1CCC1(C)OC1CCC(C)=CCCC2(C)O (stereo not given),2.13 µM (inactive),2.4 µM (inactive),1.03 µM (active),1.89 µM (inactive),7.01 µM (inactive),1.85,3.82 µM (inactive),1.87 µM (inactive),3.76 µM (inactive),1.79 µM (inactive),3.06 µM (inactive),3.33 µM (inactive),1.2 µM (inactive),16.8 µM (inactive),4.62 µM (inactive),4.06 µM (inactive),4 µM (inactive),11.8 µM (inactive),4.78 µM (inactive),9.04 µM (inactive)
Cn1c2ccc([N+](=O)[O-])cc2c(=O)n1Cc1ccccc1F,37.2 µM (inactive),99.3 µM (inactive),46.6 µM (inactive),39.6 µM (inactive),70.8 µM (inactive),40.5,> 100 µM (inactive),45.8 µM (inactive),46.8 µM (inactive),48 µM (inactive),40.1 µM (inactive),40.8 µM (inactive),61 µM (inactive),54.1 µM (inactive),25.2 µM (inactive),47.5 µM (inactive),38.3 µM (inactive),37.7 µM (inactive),42.4 µM (inactive),37.9 µM (inactive)
CC1NC(=O)C(C)C(c2ccccc2)N(N=O)C1c1ccccc1 (stereo not given),12.8 µM (inactive),> 100 µM (inactive),55.7 µM (inactive),> 63.4 µM (inactive),52.4 µM (inactive),55.2,50 µM (inactive),36.8 µM (inactive),> 100 µM (inactive),> 100 µM (inactive),> 61.7 µM (inactive),> 52.5 µM (inactive),60.7 µM (inactive),> 34.7 µM (inactive),> 100 µM (inactive),> 100 µM (inactive),> 71.3 µM (inactive),> 100 µM (inactive),> 100 µM (inactive),> 92.5 µM (inactive)
